Results: patent US20060089395A1, “Nf-kb activation inhibitors” (priority 2002, published 2006)
Where two headings read alike, the source gives them in different places.

Test system: NF-κ B
Experiment: Inhibitory activity of NF-κ B activation, luciferase reporter assay in HepG2 under TNF-α stimulation
Assay type: cell-based, human
Conditions: for inhibition at 1 µg/mL / inhibition at 10 µg/mL / inhibition at 0.1 µg/mL: Homo sapiens; for inhibition at 0.1 µg/mL: 0.1 μg/ml, read-out: Inhibitory Ratio of NF-κB Activation (%) 0.1 μg/ml
Method in brief: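 HepG2 cells transiently transfected with a luciferase reporter driven by five tandem NF-κB binding sites, then incubated 6–24 h. Stimulated with TNF-α (40 ng/ml) with or without test compound for 4 h. Intracellular luciferase read by chemiluminescence; inhibition expressed relative to activity without compound.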

[1] = 1 μg/mL, HepG2, TNF-α (40 ng/ml), 4 hours
[2] = 10 μg/mL, HepG2, TNF-α (40 ng/ml), 4 hours
[3] = 1 μg/mL, HepG2, TNF-α (40 ng/ml), 4 hours, read-out: Inhibitory Ratio of NF-κ B Activation(%) Drug Concentration 1 μg/mL
[4] = 10 μg/mL, HepG2, TNF-α (40 ng/ml), 4 hours, read-out: Inhibitory Ratio of NF-κ B Activation(%) Drug Concentration 10 μg/mL
[5] = HepG2, 4 h, comparison table, reporter assay
[6] = HepG2, 4 h, 1 μg/ml, comparison table, reporter assay, read-out: Inhibitory Ratio of NF-κB Activation (%) 1 μg/ml
[7] = HepG2, 4 h, 10 μg/ml, comparison table, reporter assay, read-out: Inhibitory Ratio of NF-κB Activation (%) 10 μg/ml

Inhibitory Ratio of NF-κ B Activation(%) Drug Concentration 1 μg/mL [1] | Inhibitory Ratio of NF-κ B Activation(%) Drug Concentration 10 μg/mL [2] | SMILES | other results
>99.9% |  | Cc1cc(Br)cc(C(=O)Nc2cc(C(F)(F)F)cc(C(F)(F)F)c2)c1O [Compound No. 258] | 
77.1% | 92.8% | O=C(Nc1cc(Cl)cc(Cl)c1)c1cc(Br)ccc1O [Compound No. 126] | 
91.0% | 99.4% | COc1ccc(C(C)(C)C)cc1NC(=O)c1cc(Cl)ccc1OC(C)=O [Compound No. 136] | 
25.5% | 78.9% | COc1cc(Cl)nc(NC(=O)c2cc(Cl)ccc2O)n1 [Compound No. 241] | 
94.2% | 97.0% | O=C(Nc1cc(Cl)cc(Cl)c1)c1cc(F)ccc1O [Compound No. 124] | 
 |  | O=C(Nc1cc(C(F)(F)F)cc(C(F)(F)F)c1)c1cc(S(=O)(=O)n2cccc2)ccc1O [Compound No. 42, N-[3,5-Bis(trifluoromethyl)phenyl]-2-hydroxy-5-(pyrrole-1-sulfonyl)benzamide] | inhibition at 1 µg/mL [3]: 84.4%; inhibition at 10 µg/mL [4]: 98.1%
38.3% | 96.8% | COc1cc(NC(=O)c2cc(Br)ccc2O)cc(OC)c1 [Compound No. 143] | 
 |  | O=C(Nc1nc(-c2cccc(C(F)(F)F)c2)cs1)c1cc(Cl)ccc1O [Compound No. 265, 5-Chloro-2-hydroxy-N-{4-[3-(trifluoromethyl)phenyl]thiazol-2-yl}benzamide] | inhibition at 1 µg/mL [3]: > 99.9%
 |  | O=C(Nc1cccc(C(F)(F)F)c1)c1cc(Br)ccc1O [drawing 560, reference compound] | inhibition at 0.1 µg/mL [5]: -20.9%; inhibition at 1 µg/mL [6]: 88%; inhibition at 10 µg/mL [7]: 89.6%
52.4% | 96.8% | COc1ccc(OC)c(NC(=O)c2cc(Cl)ccc2O)c1 [Compound No. 158] | 
 |  | CN(C)C(=O)c1ccc(O)c(C(=O)Nc2cc(C(F)(F)F)cc(C(F)(F)F)c2)c1 [Compound No. 38, N^3-[3,5-bis(trifluoromethyl)phenyl]-4-hydroxy-N^1,N^1-dimethylisophthalamide] | inhibition at 1 µg/mL [3]: 16%; inhibition at 10 µg/mL [4]: 87.1%
26.6% | 84.7% | O=C(Nc1cc(-c2ccccc2)[nH]n1)c1cc(Br)ccc1O [Compound No. 233] | 
87.6% | 96.5% | CCOC(=O)c1sc(NC(=O)c2cc(Br)ccc2O)nc1C(F)(F)F [Compound No. 224] | 
 |  | O=C(Nc1cc(C(F)(F)F)cc(C(F)(F)F)c1)c1cc(-c2ccccn2)ccc1O [Compound No. 32, N-[3,5-Bis(trifluoromethyl)phenyl]-2-hydroxy-5-(pyridin-2-yl)benzamide] | inhibition at 1 µg/mL [3]: 90.4%; inhibition at 10 µg/mL [4]: 99%
92.9% | 95.5% | CC(=O)Oc1ccccc1C(=O)Nc1cc(Cl)cc(Cl)c1 [Compound No. 121] | 
 | 86.8% | COc1ccc(OC)c(NC(=O)c2cc3ccccc3cc2O)c1 [Compound No. 183] | 
88.3% | 97.1% | Cc1ccc(C)c(NC(=O)c2cc(Cl)ccc2O)c1 [Compound No. 153] | 
85.3% | 90.2% | O=C(Nc1cc(Cl)cc(Cl)c1)c1c(O)ccc2ccccc12 [Compound No. 182] | 
 |  | O=C(Nc1cc(C(F)(F)F)cc(C(F)(F)F)c1)c1ccc(-c2ccccc2)cc1O [Compound No. 262, N-[3,5-Bis(trifluoromethyl)phenyl]-2-hydroxy-4-phenylbenzamide] | inhibition at 1 µg/mL [3]: > 99.9%
14.3% | 92.3% | O=C(Nc1ccc(Cl)nc1)c1cc(Cl)ccc1O [compound 240] | 
76.8% | 96.0% | CC(O)c1ccc(O)c(C(=O)Nc2cc(C(F)(F)F)cc(C(F)(F)F)c2)c1 (stereo not drawn) [Compound No. 13] | 
 |  | CC(=O)c1sc(NC(=O)c2cc(Br)ccc2O)nc1-c1ccccc1 [Compound No. 214, 5-Bromo-N-(5-acetyl-4-phenylthiazol-2-yl)-2-hydroxybenzamide] | inhibition at 1 µg/mL [3]: 70.2%; inhibition at 10 µg/mL [4]: 95.9%
 |  | Cc1nc(NC(=O)c2cc(Br)ccc2O)sc1-c1ccc(F)cc1 [Compound No. 193, 5-Bromo-N-[4-methyl-5-(4-fluorophenyl)thiazol-2-yl]-2-hydroxybenzamide] | inhibition at 10 µg/mL [4]: 82%
93.8% | 95.7% | O=C(Nc1cc([N+](=O)[O-])ccc1Cl)c1cc(Cl)ccc1O [Compound No. 156] | 
 |  | O=C(Nc1ccc(Cl)c(Cl)c1)c1cc(Br)ccc1O [drawing 558, reference compound] | inhibition at 0.1 µg/mL [5]: 6.8%; inhibition at 1 µg/mL [6]: 88.7%; inhibition at 10 µg/mL [7]: 92.7%
49.6% | 91.3% | CC(C)NC(=O)c1sc(NC(=O)c2cc(Br)ccc2O)nc1-c1ccccc1 [Compound No. 222] | 
 |  | CCOC(=O)c1sc(NC(=O)c2cc(Br)ccc2O)nc1C(C)(C)C [Compound No. 202, 2-(5-Bromo-2-hydroxybenzoyl)amino-4-[(1,1-dimethyl)ethyl]thiazole-5-carboxylic acid ethyl ester] | inhibition at 1 µg/mL [3]: 84.5%; inhibition at 10 µg/mL [4]: 92.4%
 |  | COc1ccc(-c2csc(NC(=O)c3cc(Cl)ccc3O)n2)cc1 [Compound No. 264, 5-Chloro-2-hydroxy-N-[4-(4-methoxyphenyl)thiazol-2-yl]benzamide] | inhibition at 1 µg/mL [3]: > 99.9%
93.3% | 95.6% | O=C(Nc1cc(C(F)(F)F)cc(C(F)(F)F)c1)c1ccccc1O [compound 2] | 

SMILES | Inhibitory Ratio of NF-κ B Activation(%) Drug Concentration 1 μg/mL [1] | Inhibitory Ratio of NF-κ B Activation(%) Drug Concentration 10 μg/mL [2] | other results
O=C(Nc1cc(C(F)(F)F)cc(C(F)(F)F)c1)c1cccc(Cl)c1O [Compound No. 64] | 84.9% | 94.1% | 
CC(C)(C)c1cc(NC(=O)c2cc([N+](=O)[O-])ccc2O)cc(C(C)(C)C)c1 [Compound No. 146] | 91.2% | 98.5% | 
O=C(Nc1cc(C(F)(F)F)ccc1Oc1ccc(Cl)cc1Cl)c1cc(Cl)ccc1O [Compound No. 111] | 96.5% | 99.7% | 
CN(C)c1ccc(O)c(C(=O)Nc2cc(C(F)(F)F)cc(C(F)(F)F)c2)c1 [Compound No. 44] |  | 67.5% | 
COc1ccccc1Oc1ccc(C(F)(F)F)cc1NC(=O)c1cc(Cl)ccc1O [Compound No. 114] | 91.8% | 98.2% | 
Cc1ccc(O)c(C(=O)Nc2cc(C(F)(F)F)ccc2C(F)(F)F)c1 [Compound No. 84] | 92.6% | 96.6% | 
O=C(Nc1cc(C(F)(F)F)ccc1N1CCOCC1)c1cc(Cl)ccc1O [Compound No. 106] | 92.3% | 92.1% | 
O=C(Nc1cc(C(F)(F)F)cc(C(F)(F)F)c1)c1cccc(O)c1O [Compound No. 57] |  | 91.9% | 
O=C(Nc1ccccc1)Nc1ccc(O)c(C(=O)Nc2cc(C(F)(F)F)cc(C(F)(F)F)c2)c1 [Compound No. 46] | 20.5% | 88.4% | 
COc1ccc(O)c(C(=O)Nc2cc(C(F)(F)F)cc(C(F)(F)F)c2)c1 [Compound No. 33] | 30.7% | 97.0% | 
O=C(Nc1cc(C(F)(F)F)ccc1OCC(F)(F)F)c1cc(Cl)ccc1O [Compound No. 113] | 90.5% | 96.2% | 
Cc1ccc(O)c(C(=O)Nc2cc(C(F)(F)F)ccc2Cl)c1 [Compound No. 100] | 85.6% | 95.1% | 
O=C(Nc1cc(C(F)(F)F)ccc1N1CCCC1)c1cc(Br)ccc1O [Compound No. 97] | 95.8% | 97.8% | 
